Results as given in US20110105540A1, “2-AMINO-9-[4-(4-METHOXY-PHENOXY)-PIPERIDIN-1-YL]-4-PHENYL-INDENO[1,2-D]PYRIMIDIN-5-ONE AND ITS USE AS A HIGHLY SELECTIVE ADENOSINE A2a RECEPTOR ANTAGONIST” (priority 2009, published 2011).

Key:
[1] = biological target: T1, human adenosine A2A receptor (Homo sapiens, UniProt P29274); assay: Adenosine A2A Receptor Functional Assay (A2AGAL2); type: cell-based
T1 construct: expressed in transfected cells; host or cells: CHO-K1
Procedure: To initiate the functional assay, cryopreserved CHO-K1 cells overexpressing the human adenosine A2A receptor and containing a cAMP inducible beta-galactosidase reporter gene were thawed, centrifuged, DMSO containing media removed, and then seeded with fresh culture media into clear 384-well tissue culture treated plates (BD #353961) at a concentration of 10K cells/well. Prior to assay, these plates were cultured for two days at 37° C., 5% CO2, 90% Rh. On the day of the functional assay, culture media was removed and replaced with 45 μL assay medium (Hams/F-12 Modified (Mediatech #10-080CV) supplemented w/0.1% BSA). Test compounds were diluted and 11 point curves created at a 1000× concentration in 100% DMSO. Immediately after addition of assay media to the cell plates, 50 nL of the appropriate test compound antagonist or agonist control curves were added to cell plates using a Cartesian Hummingbird. Compound curves were allowed to incubate at room temperature on cell plates for approximately 15 minutes before addition of a 15 nM NECA (Sigma E2387) agonist challenge (5 μL volume). […]
The colorimetric reaction was stopped with the addition of 60 μL/well 1M sodium carbonate. Plates were counted at 405 nm on a SpectraMax Microplate Reader (Molecular Devices). Data was analyzed in Microsoft Excel and IC/EC50 curves were fit using a standardized macro.

[2] = biological target: T2, human adenosine A1 receptor (Homo sapiens, UniProt P30542); assay: Adenosine A1 Receptor Functional Assay (A1GAL2); type: cell-based; conditions: CHO-K1 cells overexpressing human A1 receptor, cAMP inducible beta-galactosidase reporter, 4 nM r-PIA/1 uM Forskolin agonist challenge
T2 construct: expressed in transfected cells; host or cells: CHO-K1
T2 sequence (P30542 1-326): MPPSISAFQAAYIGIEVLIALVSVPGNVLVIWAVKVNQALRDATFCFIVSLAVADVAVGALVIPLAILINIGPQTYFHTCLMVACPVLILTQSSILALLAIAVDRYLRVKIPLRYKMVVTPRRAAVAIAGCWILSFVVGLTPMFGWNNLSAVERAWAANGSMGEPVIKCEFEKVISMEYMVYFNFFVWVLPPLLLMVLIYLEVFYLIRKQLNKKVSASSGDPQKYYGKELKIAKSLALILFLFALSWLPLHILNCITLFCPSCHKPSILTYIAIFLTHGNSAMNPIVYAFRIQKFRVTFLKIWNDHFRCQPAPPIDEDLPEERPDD
Procedure: To initiate the functional assay, cryopreserved CHO-K1 cells overexpressing the human adenosine A1 receptor and containing a cAMP inducible beta-galactosidase reporter gene were thawed, centrifuged, DMSO containing media removed, and then seeded with fresh culture media into clear 384-well tissue culture treated plates (BD #353961) at a concentration of 10K cells/well. Prior to assay, these plates were cultured for two days at 37° C., 5% CO2, 90% Rh. On the day of the functional assay, culture media was removed and replaced with 45 μL assay medium (Hams/F-12 Modified (Mediatech #10-080CV) supplemented w/0.1% BSA). Test compounds were diluted and 11 point curves created at a 1000× concentration in 100% DMSO. Immediately after addition of assay media to the cell plates, […] of the appropriate test compound antagonist or agonist control curves were added to cell plates using a Cartesian Hummingbird. Compound curves were allowed to incubate at room temperature on cell plates for approximately 15 minutes before addition of a 4 nM r-PIA (Sigma P4532)/1 uM Forskolin (Sigma F3917) agonist challenge (5 μL volume). […] Plates were counted at 405 nm on a SpectraMax Microplate Reader (Molecular Devices). Data was analyzed in Microsoft Excel and IC/EC50 curves were fit using a standardized macro.

T1 sequence (P29274 whole entry): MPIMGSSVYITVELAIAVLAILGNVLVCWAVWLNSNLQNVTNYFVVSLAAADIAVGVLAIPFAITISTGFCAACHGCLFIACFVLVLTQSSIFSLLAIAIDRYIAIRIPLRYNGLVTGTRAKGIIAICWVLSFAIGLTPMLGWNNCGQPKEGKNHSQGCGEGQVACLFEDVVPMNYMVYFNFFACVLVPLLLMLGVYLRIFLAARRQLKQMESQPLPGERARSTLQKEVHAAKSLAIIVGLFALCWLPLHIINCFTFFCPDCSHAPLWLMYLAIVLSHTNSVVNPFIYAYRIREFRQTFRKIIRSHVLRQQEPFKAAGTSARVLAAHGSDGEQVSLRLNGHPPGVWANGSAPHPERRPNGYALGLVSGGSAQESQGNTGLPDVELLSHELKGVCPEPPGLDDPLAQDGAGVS

IC50 ([1]; CHO-K1 cells overexpressing human A2A receptor, cAMP inducible beta-galactosidase reporter, 15 nM NECA agonist challenge): 0.0023 µM
A1/A2A ([1]; ratio of A1Gal2 to A2AGal2 values (selectivity for A2A over A1)): 3173.91
IC50 [2]: 7.3 µM
SMILES: COc1ccc(OC2CCN(c3cccc4c3-c3nc(N)nc(-c5ccccc5)c3C4=O)CC2)cc1 [Example A, 2-Amino-9-[4-(4-methoxy-phenoxy)-piperidin-1-yl]-4-phenyl-indeno[1,2-d]pyrimidin-5-one]
